Laboratory results reported in PMC7385359.
“And” between values parts separate entries of the source, which are not always exact repeats. Identical values can stand only once.

Assay: not told

log partition 1-octanol / water	Structure (SMILES)
0.19 log10	COC(=O)C1CC2(CC2)CN1C(C)=O (centres unmarked)
0.18 log10 and 0.03 log10	COC(=O)C1CC2(CN1C(C)=O)CC2(F)F (centres unmarked)
